This is an account of results in ChEMBL document CHEMBL1201862, “PubChem BioAssay data set” (2004).

Several values for one entry are separate records, joined by “and”; a condition that tells them apart may be missing. Equal entries are not always repeated.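 Each compound was tested at five concentrations against cells in 96-well plates for 48 hours. GI50 = concentration required for 50% inhibition of growth.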 Activity calls are given as the source filed them. Cut-off read from the data, not from the text of the source: active = GI50 up to about 1.1 µM and inactive = higher. Non-standard residues stand in square brackets, D forms with d. Residues, ends and D or L forms follow the SMILES beside them. ξ: configuration not given here. *: point of attachment. ξF = NC(Cc1ccccc1)C(=O)O; Cbz = O=C(OCc1ccccc1)*; Aib = CC(C)(N)C(=O)O

Among the test systems are CAKI-1; DMS-114; HCT-116; HT-29; K562; MCF7; MOLT-4; OVCAR-4; RPMI-8226; RXF 393; SK-MEL-5; SK-OV-3; SN12C; SNB-19; UACC-257; DU-145; HOP-62; Hs-578T; PC-3; TK-10.
Holding throughout (assay): NCI anticancer screen, dose series, 48 h

For the molecule `Nc1ccn(C2OC(COP(=O)(O)Oc3ccccc3)C(O)C2O)c(=O)n1` (configuration not stated), the GI50 in the assay with CAKI-1 was 24.5 µM (inactive); in the assay with DMS-114 it was 13.7 µM (inactive); in the assay on HCT-116, 5.57 µM (inactive); in the assay on HT-29, > 100 µM (inactive); in the assay on K562, > 70.6 µM (inactive); in the assay on MCF7 it was 13 µM (inactive). The GI50 is 0.979 µM (active) with MOLT-4; > 100 µM (inactive) in the assay on OVCAR-4; > 100 µM (inactive) in the assay with RPMI-8226; > 45.8 µM (inactive) in the assay on RXF 393; > 42.9 µM (inactive) with SK-MEL-5; > 100 µM (inactive) in the assay with SK-OV-3. For the same molecule, the GI50 with SN12C was 12.7 µM (inactive); in the assay on SNB-19, > 59.4 µM (inactive); in the assay with UACC-257 it was > 95.9 µM (inactive).

For `COc1ccc(N2NC(c3ccccc3)(c3ccccc3)C(C)C2=O)cc1` (configuration not stated), the GI50 was 54.2 µM (inactive) in the assay on CAKI-1; > 100 µM (inactive) in the assay with DU-145; 43 µM (inactive) in the assay on HCT-116; > 100 µM (inactive) with HOP-62; 40 µM (inactive) in the assay with HT-29; 67.5 µM (inactive) with Hs-578T. Moreover, the GI50 in the assay with K562 was 52.1 µM (inactive); with MCF7 it was 25.5 µM (inactive); with MOLT-4 it was 49.2 µM (inactive); with OVCAR-4, > 100 µM (inactive); in the assay with PC-3, 30.3 µM (inactive); in the assay with RPMI-8226, > 100 µM (inactive). Also, the GI50 in the assay on RXF 393 is 52.4 µM (inactive); in the assay on SK-MEL-5, 58.9 µM (inactive); in the assay on SN12C it was 82.8 µM (inactive); in the assay on SNB-19, > 100 µM (inactive); in the assay on TK-10, 86.7 µM (inactive); in the assay on UACC-257, 51.3 µM (inactive).

Regarding `CN1C(=O)c2ccccc2NC(=O)c2cnn(C)c21`, the GI50 in the assay on CAKI-1 was > 100 µM (inactive); with DMS-114, > 100 µM (inactive); in the assay on HCT-116, > 21.6 µM (inactive); with HOP-62 it was > 100 µM (inactive); with HT-29, > 100 µM (inactive); in the assay on K562, > 100 µM (inactive). In addition, the GI50 in the assay on MCF7, with MOLT-4, with OVCAR-4, with RPMI-8226, in the assay with RXF 393 and in the assay on SK-MEL-5 was > 100 µM (inactive) each time. The GI50 in the assay on SK-OV-3, in the assay with SN12C, with SNB-19 and with UACC-257 was > 100 µM (inactive) each time.

As for `C/C(CCOC1CCCCO1)=C(\C)[Si](C)(C)C` (configuration not stated), the GI50 in the assay with DMS-114 is > 100 µM (inactive); with HCT-116, > 100 µM (inactive); in the assay on HT-29 it was > 100 µM (inactive); with K562, > 100 µM (inactive); in the assay on MOLT-4, 72.8 µM (inactive); in the assay with RPMI-8226, > 100 µM (inactive). Also, the GI50 was > 100 µM (inactive) in the assay with SK-MEL-5; > 10 µM (inactive) in the assay on SK-OV-3; > 100 µM (inactive) in the assay on SN12C; > 100 µM (inactive) with SNB-19; > 100 µM (inactive) with TK-10; > 100 µM (inactive) in the assay with UACC-257.

As to `c1cc(CNC2C3CCC(C3)C2c2c[nH]c3ccccc23)cc(CNC2C3CCC(C3)C2c2c[nH]c3ccccc23)c1` (configuration not stated), the GI50 in the assay on CAKI-1 is 1.65 µM (inactive) and 1.73 µM (inactive); with DU-145, 1.57 µM (inactive) and 1.3 µM (inactive); in the assay with HOP-62, 1.85 µM (inactive) and 1.77 µM (inactive); in the assay on Hs-578T, 1.43 µM (inactive) and 1.62 µM (inactive); in the assay with K562 it was 155 nM (active) and 203 nM (active); in the assay with MCF7, 0.205 µM (active). In addition, the GI50 in the assay with OVCAR-4 is 1.7 µM (inactive) and 1.58 µM (inactive); in the assay with PC-3 it was 1.6 µM (inactive) and 1.64 µM (inactive); in the assay with RPMI-8226, 0.207 µM (active); with RXF 393, 1.22 µM (inactive) and 1.31 µM (inactive); in the assay on SK-MEL-5, 1.85 µM (inactive) and 1.91 µM (inactive); in the assay with SK-OV-3, 1.85 µM (inactive) and 1.8 µM (inactive). The GI50 in the assay with SNB-19 was 1.41 µM (inactive) and 1.39 µM (inactive); in the assay with TK-10, 1.73 µM (inactive) and 1.94 µM (inactive).

As to `COc1ccc(N2C(=O)C(=O)C3(CCCCC3)C2=O)c2ccccc12`, the GI50 in the assay on CAKI-1, with DU-145, with HCT-116, with HOP-62, in the assay on HT-29 and in the assay on Hs-578T was > 10 µM (inactive) each time. Further, the GI50 in the assay with K562, with MCF7, with MOLT-4, with OVCAR-4, in the assay on PC-3 and in the assay on RPMI-8226 was > 10 µM (inactive) throughout. Also, the GI50 in the assay on RXF 393, in the assay on SK-MEL-5, with SK-OV-3, in the assay with SN12C, in the assay on SNB-19 and in the assay on TK-10 was > 10 µM (inactive) throughout.

Turning to `C[n+]1cccc2c(=O)c3ccccc3oc21`, the GI50 in the assay with CAKI-1, in the assay on DU-145, in the assay on HCT-116, in the assay with HOP-62, in the assay with HT-29 and with Hs-578T was > 100 µM (inactive) in each case. Also, the GI50 in the assay on K562, in the assay on MCF7, in the assay with OVCAR-4, in the assay with PC-3, with RXF 393 and with SK-MEL-5 was > 100 µM (inactive) in each case. The GI50 in the assay on SK-OV-3, with SN12C, in the assay on SNB-19 and in the assay on TK-10 was > 100 µM (inactive) each time.

For the molecule `C=CCCCC12CCCc3cccc(c31)NC2=O` (configuration not stated), the GI50 with DMS-114 is 17.3 µM (inactive); in the assay on HCT-116, 13.6 µM (inactive); with HOP-62, 34 µM (inactive); in the assay on K562, 22 µM (inactive); in the assay with MOLT-4, 18.8 µM (inactive); in the assay with OVCAR-4, 18.9 µM (inactive). The GI50 in the assay on RPMI-8226 was 19.7 µM (inactive); with RXF 393, 17.6 µM (inactive); in the assay with SK-MEL-5, 16.3 µM (inactive); in the assay on SK-OV-3, 19.7 µM (inactive); in the assay with SN12C, 32.4 µM (inactive); with SNB-19 it was 23.4 µM (inactive). The GI50 with TK-10 was 19.6 µM (inactive); in the assay with UACC-257, 22.1 µM (inactive).

In the case of `COc1ccc(-n2cnnc2-c2nsc3ccccc23)cc1`, the GI50 in the assay on DMS-114 is > 100 µM (inactive); in the assay with HCT-116, > 100 µM (inactive); in the assay on HOP-62 it was 94.8 µM (inactive); with HT-29 it was 92.5 µM (inactive); in the assay with K562, 90.6 µM (inactive); in the assay with MOLT-4, > 100 µM (inactive). Further, the GI50 is > 100 µM (inactive) in the assay on OVCAR-4; 60 µM (inactive) in the assay with RPMI-8226; 12.4 µM (inactive) in the assay with RXF 393; > 100 µM (inactive) in the assay on SK-MEL-5; 99.8 µM (inactive) in the assay on SN12C; > 100 µM (inactive) in the assay with SNB-19. In addition, the GI50 in the assay on TK-10 and with UACC-257 was > 100 µM (inactive) throughout.

With `O=c1[nH]c(=S)[nH]c2c(C3OC(CO)C(O)C3O)nsc12` (configuration not stated), the GI50 in the assay with CAKI-1, in the assay with DU-145, with HCT-116, in the assay with HOP-62, with HT-29 and in the assay on Hs-578T was > 100 µM (inactive) each time. For the same molecule, the GI50 in the assay on K562, in the assay on MCF7, in the assay with MOLT-4, in the assay on OVCAR-4, in the assay with PC-3 and in the assay on RXF 393 was > 100 µM (inactive) in each case. Also, the GI50 in the assay with SK-MEL-5, with SK-OV-3, with SN12C, in the assay with TK-10 and with UACC-257 was > 100 µM (inactive) in each case.

Regarding `COc1ccc(N2C(=O)C(=O)N(C)C2=O)c2ccccc12`, the GI50 in the assay with CAKI-1, in the assay on DU-145, with HCT-116, in the assay on HOP-62, with HT-29 and with Hs-578T was > 10 µM (inactive) in each case. Besides, the GI50 with K562, with MCF7, in the assay with MOLT-4, with OVCAR-4, with PC-3 and in the assay on RPMI-8226 was > 10 µM (inactive) in each case. In addition, the GI50 in the assay with RXF 393, in the assay on SK-MEL-5, in the assay with SK-OV-3, in the assay with SN12C, in the assay on SNB-19 and with TK-10 was > 10 µM (inactive) each time.

As to `CCOC(=O)CNC(=O)C(Cc1ccccc1)NC(=O)C(C)(C)NC(=O)OCc1ccccc1` (configuration not stated) (Cbz-[Aib]-[ξF]-Gly-OEt), the GI50 with CAKI-1 is > 100 µM (inactive); with DU-145, 28.6 µM (inactive); with HCT-116 it was > 100 µM (inactive); in the assay with HOP-62 it was > 100 µM (inactive); in the assay on HT-29, > 100 µM (inactive); in the assay with K562 it was 33.1 µM (inactive). Also, the GI50 is > 100 µM (inactive) in the assay with MCF7; 29.4 µM (inactive) in the assay on MOLT-4; > 100 µM (inactive) in the assay on OVCAR-4; > 100 µM (inactive) with PC-3; 32.6 µM (inactive) in the assay on RPMI-8226; 64.1 µM (inactive) in the assay on SK-MEL-5. The GI50 is > 100 µM (inactive) in the assay with SNB-19, > 100 µM (inactive) in the assay with TK-10 and 33.1 µM (inactive) in the assay with UACC-257.
